From ChEMBL document CHEMBL1201862, “PubChem BioAssay data set” (2004)
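Dose response: 5 concentrations. Exposure: 48 h. Format: 96-well plates. Endpoint: linear interpolation; highest concentration if not reached. Abbreviation: GI50, concentration required for 50% inhibition of growth.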 Calls of active or inactive are those of the source. Rule as the data show it: active = GI50 up to about 1.1 µM and inactive = higher.

Columns and labels:
Experiment in all cases: growth of human tumour cells (NCI), 48 h
[1] = test system: HL-60
[2] = test system: CCRF-CEM
[3] = test system: IGROV-1
[4] = test system: OVCAR-4
[5] = test system: SNB-75
[6] = test system: 786-0
[7] = test system: UACC-62
[8] = test system: RPMI-8226
[9] = test system: SK-OV-3
[10] = test system: NCI-H522
[11] = test system: LXFL 529
[12] = test system: KM12
[13] = test system: TK-10
[14] = test system: HCC 2998
[15] = test system: SF-295
[16] = test system: HCT-116
[17] = test system: CAKI-1
[18] = test system: T47D
[19] = test system: MDA-MB-231
[20] = test system: MDA-MB-435

Structure (SMILES) | GI50 [1] | GI50 [2] | GI50 [3] | GI50 [4] | GI50 [5] | GI50 [6] | GI50 [7] | GI50 [8] | GI50 [9] | GI50 [10] | GI50 [11] | GI50 [12] | GI50 [13] | GI50 [14] | GI50 [15] | GI50 [16] | GI50 [17] | GI50 [18] | GI50 [19] | GI50 [20]
COc1ccc2nc(-c3ccccn3)cc(O)c2c1 | 34 µM (inactive) | 51.2 µM (inactive) | 44.6 µM (inactive) | 72.3 µM (inactive) | 18.4 µM (inactive) | 90.2 µM (inactive) | 32.8 µM (inactive) | 37.8 µM (inactive) | 52.7 µM (inactive) | 20.4 µM (inactive) | 41.5 µM (inactive) | 26.7 µM (inactive) | 96.4 µM (inactive) | – | – | – | – | – | – | –
N/N=c1\c2ccccc2c2cc3c(cc12)/c(=N/N)c1ccccc13 | > 100 µM (inactive) | > 100 µM (inactive) | > 100 µM (inactive) | > 100 µM (inactive) | 59.4 µM (inactive) | > 100 µM (inactive) | > 100 µM (inactive) | > 100 µM (inactive) | > 100 µM (inactive) | > 100 µM (inactive) | > 100 µM (inactive) | > 100 µM (inactive) | – | > 100 µM (inactive) | > 100 µM (inactive) | > 100 µM (inactive) | – | – | – | –
CC(=O)NC1C(OCc2ccccc2)OC(COC(=O)CCCCCCCCCCNC(=O)c2cccc3c(=O)c4ccccc4[nH]c23)C(O)C1OC(C)C(=O)NC(C)C(=O)NC(CCC(N)=O)C(N)=O (stereo not drawn) | > 100 µM (inactive) | – | 50.1 µM (inactive) | 61 µM (inactive) | 56.9 µM (inactive) | > 100 µM (inactive) | 35.2 µM (inactive) | 32.1 µM (inactive) | > 100 µM (inactive) | 89.1 µM (inactive) | 37.3 µM (inactive) | 49.1 µM (inactive) | > 100 µM (inactive) | – | 71.1 µM (inactive) | 79.8 µM (inactive) | > 100 µM (inactive) | – | – | –
C/C=C(\CCOS(=O)(=O)c1ccc(C)cc1)[Si](C)(C)C | > 100 µM (inactive) | 0.115 µM (active) | > 100 µM (inactive) | – | > 100 µM (inactive) | > 100 µM (inactive) | > 100 µM (inactive) | > 100 µM (inactive) | > 100 µM (inactive) | > 100 µM (inactive) | > 100 µM (inactive) | > 100 µM (inactive) | > 100 µM (inactive) | > 100 µM (inactive) | > 100 µM (inactive) | > 100 µM (inactive) | – | – | – | –
O=c1c2ccccc2nc(-c2ccccc2)n1NC(=S)Nc1ccc(Cl)cc1 | 56.9 µM (inactive) | 58.3 µM (inactive) | > 100 µM (inactive) | 74.3 µM (inactive) | 59.4 µM (inactive) | > 100 µM (inactive) | 55.2 µM (inactive) | 69.7 µM (inactive) | > 100 µM (inactive) | 34.7 µM (inactive) | 48.6 µM (inactive) | 85.9 µM (inactive) | > 100 µM (inactive) | – | > 100 µM (inactive) | 55.1 µM (inactive) | > 100 µM (inactive) | – | – | –
O=C(CSc1nnc(-c2ccc(/N=C\c3ccc(Cl)cc3)cc2)o1)Nc1ccc(Cl)cc1 | > 100 µM (inactive) | > 100 µM (inactive) | – | > 100 µM (inactive) | > 100 µM (inactive) | > 100 µM (inactive) | > 100 µM (inactive) | 41.7 µM (inactive) | > 100 µM (inactive) | > 100 µM (inactive) | > 100 µM (inactive) | > 100 µM (inactive) | > 100 µM (inactive) | – | > 100 µM (inactive) | > 100 µM (inactive) | – | – | – | –
CCOC12SC(Nc3ccc(C)cc3)=NN1C(=S)N(C)N=C2C (stereo not drawn) | > 100 µM (inactive) | > 100 µM (inactive) | > 100 µM (inactive) | > 100 µM (inactive) | > 100 µM (inactive) | > 100 µM (inactive) | > 100 µM (inactive) | > 100 µM (inactive) | – | > 100 µM (inactive) | > 100 µM (inactive) | > 100 µM (inactive) | – | – | > 100 µM (inactive) | > 100 µM (inactive) | – | – | – | –
Cc1ccc([S+]([O-])C(C)C(Cl)c2ccccc2)cc1 (stereo not drawn) | – | 47.6 µM (inactive) | 60.4 µM (inactive) | > 100 µM (inactive) | 48.6 µM (inactive) | > 100 µM (inactive) | 80 µM (inactive) | 35.9 µM (inactive) | > 100 µM (inactive) | 28.9 µM (inactive) | 81.1 µM (inactive) | – | > 100 µM (inactive) | > 100 µM (inactive) | 86.7 µM (inactive) | > 100 µM (inactive) | > 100 µM (inactive) | – | – | –
O=C1/C(=C\c2cccs2)Oc2ccccc21 | 49.8 µM (inactive) | 57.7 µM (inactive) | 26.7 µM (inactive) | 31.5 µM (inactive) | 55.7 µM (inactive) | 77.6 µM (inactive) | 75.2 µM (inactive) | 69.5 µM (inactive) | 38 µM (inactive) | 39.8 µM (inactive) | – | 59.4 µM (inactive) | 90.6 µM (inactive) | 64.6 µM (inactive) | 74 µM (inactive) | 60.4 µM (inactive) | 33.6 µM (inactive) | 2.99 µM (inactive) | 71.1 µM (inactive) | 98.6 µM (inactive)
O=C(COC(=O)c1cccc2c(=O)c3ccccc3[nH]c12)Nc1ccccc1 | 16.7 µM (inactive) | – | > 100 µM (inactive) | 45.6 µM (inactive) | 31.8 µM (inactive) | > 100 µM (inactive) | 26.4 µM (inactive) | 23.7 µM (inactive) | > 100 µM (inactive) | 25.3 µM (inactive) | 28.6 µM (inactive) | 21.1 µM (inactive) | > 100 µM (inactive) | > 100 µM (inactive) | 50.8 µM (inactive) | 24.2 µM (inactive) | 45.8 µM (inactive) | – | – | –
CC(C)(C)c1cc2c(OC/C=C/c3ccccc3)c(c1)Cc1cc(C(C#N)(OC/C=C/c3ccccc3)OC/C=C/c3ccccc3)cc(c1OC/C=C\c1ccccc1)Cc1cc(C(C)(C)C)cc(c1OC/C=C/c1ccccc1)Cc1cc(C(C#N)(OC/C=C\c3ccccc3)OC/C=C/c3ccccc3)cc(c1OC/C=C\c1ccccc1)C2 (stereo not drawn) | > 100 µM (inactive) | > 100 µM (inactive) | > 100 µM (inactive) | > 100 µM (inactive) | > 100 µM (inactive) | > 100 µM (inactive) | > 100 µM (inactive) | > 100 µM (inactive) | > 100 µM (inactive) | > 100 µM (inactive) | – | > 100 µM (inactive) | 1.95 µM (inactive) | > 100 µM (inactive) | > 100 µM (inactive) | > 100 µM (inactive) | > 100 µM (inactive) | > 100 µM (inactive) | 30.4 µM (inactive) | > 100 µM (inactive)
CSc1nc(SC)c2c(C(N)=S)n[nH]c2n1 | – | 26.2 µM (inactive) | 30.4 µM (inactive) | 21.2 µM (inactive) | 25.9 µM (inactive) | 28.4 µM (inactive) | 21.8 µM (inactive) | 23.1 µM (inactive) | 23.6 µM (inactive) | > 10 µM (inactive) | 29.6 µM (inactive) | 37.4 µM (inactive) | 23.3 µM (inactive) | – | 6 µM (inactive) | – | 21.1 µM (inactive) | – | – | –
Cc1ccc2[nH]c(=N/c3ccccc3C)/c(=N\c3ccccc3C)[nH]c2c1 | 46.2 µM (inactive) | > 46.8 µM (inactive) | 20 µM (inactive) | 47.2 µM (inactive) | 34.7 µM (inactive) | 30 µM (inactive) | 26.3 µM (inactive) | > 100 µM (inactive) | 43 µM (inactive) | 10.2 µM (inactive) | – | 17.6 µM (inactive) | 38.5 µM (inactive) | 23.5 µM (inactive) | 21.4 µM (inactive) | 17.7 µM (inactive) | 27.9 µM (inactive) | 19.3 µM (inactive) | 17.1 µM (inactive) | 32.2 µM (inactive)
Cc1cccc(CC(Cc2ccc(C)cc2C(=O)O)C(=O)O)c1 (stereo not drawn) | > 100 µM (inactive) | > 100 µM (inactive) | > 100 µM (inactive) | > 100 µM (inactive) | > 100 µM (inactive) | > 100 µM (inactive) | 42 µM (inactive) | > 100 µM (inactive) | 74.1 µM (inactive) | > 100 µM (inactive) | – | > 100 µM (inactive) | > 100 µM (inactive) | > 100 µM (inactive) | > 100 µM (inactive) | > 100 µM (inactive) | > 100 µM (inactive) | > 100 µM (inactive) | > 100 µM (inactive) | > 100 µM (inactive)
CN(C)CC1=Nc2cccc3cccc(c23)N1 | 13.2 µM (inactive) | 0.235 µM (active) | 18.5 µM (inactive) | 13.3 µM (inactive) | 16.7 µM (inactive) | 12.4 µM (inactive) | 16.1 µM (inactive) | 3.3 µM (inactive) | > 100 µM (inactive) | 1.89 µM (inactive) | – | 25.6 µM (inactive) | 18.4 µM (inactive) | 17.2 µM (inactive) | > 100 µM (inactive) | 8.15 µM (inactive) | 21.5 µM (inactive) | 6.11 µM (inactive) | 17.8 µM (inactive) | 20.2 µM (inactive)
N#CC12CCC1C1CCCCC12N1CCSCC1 (stereo not drawn) | 16.3 µM (inactive) | > 100 µM (inactive) | > 100 µM (inactive) | > 10 µM (inactive) | > 100 µM (inactive) | > 100 µM (inactive) | > 100 µM (inactive) | 51.1 µM (inactive) | – | – | > 100 µM (inactive) | 92.3 µM (inactive) | – | > 100 µM (inactive) | > 100 µM (inactive) | > 100 µM (inactive) | > 100 µM (inactive) | – | – | –
[N-]=[N+]=NC1C(Br)C(=O)NC(=O)N1[C@H]1C[C@H](O)[C@@H](CO)O1 (stereo partly drawn) | > 100 µM (inactive) | – | > 100 µM (inactive) | > 100 µM (inactive) | > 100 µM (inactive) | > 100 µM (inactive) | > 100 µM (inactive) | – | > 100 µM (inactive) | > 100 µM (inactive) | > 100 µM (inactive) | > 100 µM (inactive) | > 100 µM (inactive) | > 100 µM (inactive) | > 100 µM (inactive) | – | – | – | – | –
